One series concerns NCI/ADR-RES. Briefly: Cytotoxicity against doxorubicin-resistant human MCF-7/ADR cells assessed as inhibition rate at 5 uM measured after […] hrs by CCK-8 assay relative to control. The class given is functional.
In a further series the test system is MCF7. Description: Cytotoxicity against human MCF7 cells assessed as inhibition rate at 5 uM measured after […] hrs by CCK-8 assay relative to control. The class given is functional.
Series [1] concerns the target ATP-dependent translocase ABCB1 (Homo sapiens, UniProt P08183). Description: Inhibition of P-gp-mediated multidrug resistance in doxorubicin-resistant human MCF7/ADR cells assessed as fold reversal of resistance by measuring doxorubicin IC50 incubated for 48 hrs by CCK-8 assay relative to doxorubicin IC50 in absence of compound. Type of series: cell-based. The conditions noted are these: nci-adr-res.

The results in this text go back to ChEMBL document CHEMBL5380848, “Novel Benzo Five-Membered Heterocycle Derivatives as P-Glycoprotein Inhibitors: Design, Synthesis, Molecular Docking, and Anti-Multidrug Resistance Activity” (J Med Chem, 2023).

SMILES strings stand for the structures.

As usually defined, the inhibition is the change of the read-out against control, counted positive when it falls.

Sequence of ATP-dependent translocase ABCB1 (P08183 whole entry): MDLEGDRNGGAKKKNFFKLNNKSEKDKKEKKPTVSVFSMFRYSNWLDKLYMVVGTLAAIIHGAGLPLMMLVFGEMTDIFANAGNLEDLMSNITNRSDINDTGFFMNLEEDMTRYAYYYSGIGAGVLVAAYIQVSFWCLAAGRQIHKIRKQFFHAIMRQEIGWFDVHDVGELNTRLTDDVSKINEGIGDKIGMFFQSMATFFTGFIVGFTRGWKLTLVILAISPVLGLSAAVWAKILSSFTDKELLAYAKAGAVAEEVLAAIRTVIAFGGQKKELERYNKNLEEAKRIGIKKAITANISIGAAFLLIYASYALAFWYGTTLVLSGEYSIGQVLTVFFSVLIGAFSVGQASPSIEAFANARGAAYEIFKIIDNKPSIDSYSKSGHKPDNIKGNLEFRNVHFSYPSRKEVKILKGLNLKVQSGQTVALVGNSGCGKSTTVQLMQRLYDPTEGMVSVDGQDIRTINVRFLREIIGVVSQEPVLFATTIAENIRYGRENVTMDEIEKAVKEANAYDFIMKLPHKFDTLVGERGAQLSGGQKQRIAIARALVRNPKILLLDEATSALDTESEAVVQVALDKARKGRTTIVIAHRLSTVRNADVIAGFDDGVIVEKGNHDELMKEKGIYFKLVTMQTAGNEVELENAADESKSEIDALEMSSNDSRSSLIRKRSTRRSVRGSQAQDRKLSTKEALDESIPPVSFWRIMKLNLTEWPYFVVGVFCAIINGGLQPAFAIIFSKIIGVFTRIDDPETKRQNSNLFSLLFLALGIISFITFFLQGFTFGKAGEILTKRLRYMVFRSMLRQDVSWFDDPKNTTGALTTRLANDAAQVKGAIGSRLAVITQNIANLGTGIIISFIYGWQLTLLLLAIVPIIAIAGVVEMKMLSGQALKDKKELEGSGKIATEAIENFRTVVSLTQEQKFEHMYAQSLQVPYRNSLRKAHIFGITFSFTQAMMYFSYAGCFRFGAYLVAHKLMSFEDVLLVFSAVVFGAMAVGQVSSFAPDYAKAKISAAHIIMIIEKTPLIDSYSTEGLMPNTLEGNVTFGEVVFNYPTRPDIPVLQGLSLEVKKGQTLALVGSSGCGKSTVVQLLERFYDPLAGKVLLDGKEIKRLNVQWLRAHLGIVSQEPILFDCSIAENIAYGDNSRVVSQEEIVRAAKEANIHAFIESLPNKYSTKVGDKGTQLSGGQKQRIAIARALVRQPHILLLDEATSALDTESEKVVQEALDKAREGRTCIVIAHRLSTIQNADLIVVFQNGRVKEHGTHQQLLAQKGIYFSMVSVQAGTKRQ

Consider `COc1cc2c(cc1OC)CN(C(=O)c1cc3cc(-c4ccc(NC(=O)c5ccc(OC(C)(C)C)cc5)cc4)ccc3[nH]1)CC2`, for which the inhibition at 5 µM in the series with NCI/ADR-RES came to 8.8%; in the series with MCF7 it was 15.9%. Further, the “fold change (FC)” value in series [1] is given as 96.6. As to `COc1cc2c(cc1OC)CN(C(=O)c1cc3cc(-c4ccc(NC(=O)c5cccc(Cl)c5)cc4)ccc3[nH]1)CC2`, the inhibition at 5 µM worked out at 17.7% in the series with NCI/ADR-RES and 12% in the series with MCF7. In series [1], the “fold change (FC)” value worked out at 431.5. With `COc1cc2c(cc1OC)CN(C(=O)c1cc3cc(-c4ccccc4[N+](=O)[O-])ccc3[nH]1)CC2`, the “fold change (FC)” value in series [1] is listed as 41.9.

In the case of `COc1ccc(C(=O)Nc2ccc(-c3ccc4[nH]c(C(=O)N5CCc6cc(OC)c(OC)cc6C5)cc4c3)cc2)cc1OC`, the inhibition at 5 µM with NCI/ADR-RES worked out at 37.2%; with MCF7, 20.6%. Moreover, in series [1], the “fold change (FC)” value came to 486.9. `COc1cc2c(cc1OC)CN(C(=O)c1cc3cc(-c4ccc(NC(=O)c5ccccc5)cc4)ccc3[nH]1)CC2`: the inhibition at 5 µM in the series on NCI/ADR-RES worked out at 11%; in the series on MCF7, 15.5%. Also, the “fold change (FC)” value in series [1] was found to be 146.3. As for `COc1cc2c(cc1OC)CN(C(=O)c1cc3cc(-c4ccc(NC(=O)c5ccc(OC(F)(F)F)cc5)cc4)ccc3[nH]1)CC2`, the inhibition at 5 µM in the series with NCI/ADR-RES amounted to 53.8%; in the series with MCF7, 46.7%. With `COc1cc2c(cc1OC)CN(C(=O)c1cc3cc(-c4ccc(NC(=O)c5ccc(Cl)cc5)cc4)ccc3n1Cc1cccc(Br)c1)CC2`, the values for the inhibition at 5 µM with NCI/ADR-RES and with MCF7 were 21.6% and 7.9%, respectively. Further, in series [1], the “fold change (FC)” value is recorded as 118.6. The like results for `COc1cc2c(cc1OC)CN(C(=O)c1cc3cc(-c4ccc(NC(=O)c5ccccc5F)cc4)ccc3[nH]1)CC2` were, in that order, 18.7%, 13.9% and 469.8. Take `COc1cc2c(cc1OC)CN(C(=O)c1cc3cc(-c4cccc([N+](=O)[O-])c4)ccc3[nH]1)CC2`: the “fold change (FC)” value in series [1] is reported as 76.3. Regarding `COc1cc2c(cc1OC)CN(C(=O)c1cc3cc(-c4cc(OC)c(OC)c(OC)c4)ccc3[nH]1)CC2`, in series [1], the “fold change (FC)” value is 137.6. The same measure, in the same setting: for `COc1cc2c(cc1OC)CN(C(=O)c1cc3cc(-c4ccc(Oc5ccccc5)cc4)ccc3[nH]1)CC2` the value was 30.

As to `COc1cc2c(cc1OC)CN(C(=O)c1cc3cc(-c4ccc(NC(=O)c5ccc(Br)cc5)cc4)ccc3[nH]1)CC2`, the results for the inhibition at 5 µM in the series with NCI/ADR-RES and in the series with MCF7 were 19.1% and 10.2%, respectively. For the same compound, the “fold change (FC)” value in series [1] was 201.7. In the case of `COc1cc2c(cc1OC)CN(C(=O)c1cc3cc(-c4ccc(NC(=O)c5ccc(Cl)cc5)cc4)ccc3n1Cc1ccc(Cl)cc1)CC2`, the inhibition at 5 µM was -3.3% in the series on NCI/ADR-RES and 2.6% in the series with MCF7. In series [1], the “fold change (FC)” value is on record as 25.9. `COc1ccc(CCN(C)CCCC(C#N)(c2ccc(OC)c(OC)c2)C(C)C)cc1OC` (stereo unspecified): the inhibition at 5 µM was found to be 12.2% with NCI/ADR-RES and 6.9% in the series with MCF7. As to `COc1cc2c(cc1OC)CN(C(=O)c1cc3cc(-c4ccc(F)cc4)ccc3[nH]1)CC2`, the “fold change (FC)” value in series [1] was 51.3. In the case of `COc1cc2c(cc1OC)CN(C(=O)c1cc3cc(-c4ccc5c(c4)OCO5)ccc3[nH]1)CC2`, in series [1], the “fold change (FC)” value is 33.4. Consider `COc1cccc(-c2ccc3[nH]c(C(=O)N4CCc5cc(OC)c(OC)cc5C4)cc3c2)c1`, for which the “fold change (FC)” value in series [1] came to 204.4.

In the case of `COc1ccc(OC)c(-c2ccc3[nH]c(C(=O)N4CCc5cc(OC)c(OC)cc5C4)cc3c2)c1`, the “fold change (FC)” value in series [1] is 108.7. `COc1cc2c(cc1OC)CN(C(=O)c1cc3cc(-c4ccc(C)cc4)ccc3[nH]1)CC2`: in series [1], the “fold change (FC)” value was found to be 41.4.

For the compound `COc1cc2c(cc1OC)CN(C(=O)c1cc3cc(-c4cccc(C)c4)ccc3[nH]1)CC2`, the “fold change (FC)” value in series [1] came to 58.1. Same read-out and setting: for `COc1ccc(-c2ccc3[nH]c(C(=O)N4CCc5cc(OC)c(OC)cc5C4)cc3c2)c(OC)c1` the value was 112.7; for `COc1cc2c(cc1OC)CN(C(=O)c1cc3cc(-c4ccc([N+](=O)[O-])cc4)ccc3[nH]1)CC2`, 55.8; for `COc1cc2c(cc1OC)CN(C(=O)c1cc3cc(-c4ccccc4Cl)ccc3[nH]1)CC2`, 52.8. In the case of `C/C=C/C[C@@H](C)[C@@H](O)[C@H]1C(=O)N[C@@H](CC)C(=O)N(C)CC(=O)N(C)[C@@H](CC(C)C)C(=O)N[C@@H](C(C)C)C(=O)N(C)[C@@H](CC(C)C)C(=O)N[C@@H](C)C(=O)N[C@H](C)C(=O)N(C)[C@@H](CC(C)C)C(=O)N(C)[C@@H](CC(C)C)C(=O)N(C)[C@@H](C(C)C)C(=O)N1C` [CYCLOSPORINE], in the series with NCI/ADR-RES, the inhibition at 5 µM was 24.5%. In the case of `COc1cc2c(cc1OC)CN(C(=O)c1cc3cc(-c4ccc(N)cc4)ccc3[nH]1)CC2`, the “fold change (FC)” value in series [1] was found to be 34.9. As for `COc1cccc2c1C(=O)c1c(O)c3c(c(O)c1C2=O)C[C@@](O)(C(=O)CO)C[C@@H]3O[C@H]1C[C@H](N)[C@H](O)[C@H](C)O1` [DOXORUBICIN], in series [1], the “fold change (FC)” value came to 1. On to `COc1cc2c(cc1OC)CN(C(=O)c1cc3cc(-c4ccc(Cl)cc4)ccc3[nH]1)CC2`, for which, in series [1], the “fold change (FC)” value was found to be 100.4. On to `CCOc1ccc(-c2ccc3[nH]c(C(=O)N4CCc5cc(OC)c(OC)cc5C4)cc3c2)cc1`, for which the “fold change (FC)” value in series [1] is listed as 33.6.

For `COc1cc2c(cc1OC)CN(C(=O)c1cc3cc(-c4ccccc4OC)ccc3[nH]1)CC2`, in series [1], the “fold change (FC)” value is given as 15.1. As for `COc1cc2c(cc1OC)CN(C(=O)c1cc3cc(-c4cccc(Cl)c4)ccc3[nH]1)CC2`, the “fold change (FC)” value in series [1] was 33.4. For the compound `CCCCOc1ccc(-c2ccc3[nH]c(C(=O)N4CCc5cc(OC)c(OC)cc5C4)cc3c2)cc1`, the “fold change (FC)” value in series [1] is on record as 18.3. With `COc1cc2c(cc1OC)CN(C(=O)c1cc3cc(-c4ccc(OC(C)(C)C)cc4)ccc3[nH]1)CC2`, the “fold change (FC)” value in series [1] worked out at 27.5. Consider `CCCOc1ccc(-c2ccc3[nH]c(C(=O)N4CCc5cc(OC)c(OC)cc5C4)cc3c2)cc1`, for which the “fold change (FC)” value in series [1] came to 16.5. Still for that read-out and setting: as for `COc1cc2c(cc1OC)CN(C(=O)c1cc3cc(-c4ccc(OC(C)C)cc4)ccc3[nH]1)CC2`, the figure is 24. Regarding `COc1cc2c(cc1OC)CN(C(=O)c1cc3cc(-c4cccc(OC)c4OC)ccc3[nH]1)CC2`, the “fold change (FC)” value in series [1] is 88.3. For `COc1cc(OC)cc(-c2ccc3[nH]c(C(=O)N4CCc5cc(OC)c(OC)cc5C4)cc3c2)c1`, the “fold change (FC)” value in series [1] is 86.4.

Turning to `COc1cc2c(cc1OC)CN(C(=O)c1cc3cc(-c4ccccc4)ccc3[nH]1)CC2`, the “fold change (FC)” value in series [1] turned out to be 10. On to `COc1cc2c(cc1OC)CN(C(=O)c1cc3cc(-c4cccc(F)c4)ccc3[nH]1)CC2`, for which the “fold change (FC)” value in series [1] is given as 19.9. In the case of `COc1ccc(-c2ccc3[nH]c(C(=O)N4CCc5cc(OC)c(OC)cc5C4)cc3c2)cc1`, the “fold change (FC)” value in series [1] came to 46.4. As to `COc1cc2c(cc1OC)CN(C(=O)c1cc3cc(-c4ccc(OC(F)(F)F)cc4)ccc3[nH]1)CC2`, the “fold change (FC)” value in series [1] is reported as 99.1. Still for that read-out and setting: for `COc1ccc(-c2ccc3[nH]c(C(=O)N4CCc5cc(OC)c(OC)cc5C4)cc3c2)cc1OC` the value was 56.2. Consider `COc1cc2c(cc1OC)CN(C(=O)c1cc3cc(-c4ccccc4C)ccc3[nH]1)CC2`, for which the “fold change (FC)” value in series [1] amounted to 26.3. Still for that read-out and setting: for `COc1cc2c(cc1OC)CN(C(=O)c1cc3cc(-c4ccccc4F)ccc3[nH]1)CC2` the value was 17.
